The text below walks through data of patent US6903132B2, “Non-peptide GnRH agents, pharmaceutical compositions and methods for their use” (Agouron Pharmaceuticals, Inc., priority 2002, dated 2005).

The term Ki denotes a dissociation constant, usually derived from enzyme kinetics or from competition with a known ligand.

What all share (assay): Radioligand binding assay: inhibition of binding of 125I-GnRH-A to GnRH receptors (membranes)
One test has as its target T1, rat GnRH receptor (Rattus norvegicus, UniProt P30969).
T1 construct: rat pituitaries (Pel Freez Biologicals, Rogers, Ark.) are homogenized in buffer A; tissue Pel Freez Biologicals; host or cells: rat pituitaries
T1 sequence (P30969 1-327): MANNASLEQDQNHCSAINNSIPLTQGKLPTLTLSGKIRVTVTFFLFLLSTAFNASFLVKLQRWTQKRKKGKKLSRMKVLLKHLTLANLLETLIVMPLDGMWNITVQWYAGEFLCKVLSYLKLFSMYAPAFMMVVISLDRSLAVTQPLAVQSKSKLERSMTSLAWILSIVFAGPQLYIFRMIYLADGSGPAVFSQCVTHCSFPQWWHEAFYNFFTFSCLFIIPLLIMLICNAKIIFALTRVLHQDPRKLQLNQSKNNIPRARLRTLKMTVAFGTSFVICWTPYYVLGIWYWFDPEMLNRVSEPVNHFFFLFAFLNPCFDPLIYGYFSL
To be noted: competition with 125I-GnRH-A, Ki calculated from IC50 (Cheng et al.). In outline:
(§1)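 Membranes from HEK 293 expressing mouse or human receptor, or rat pituitaries, incubated 1 h at RT with ~0.04–0.06 nM ¹²⁵I-[des-Gly¹⁰,D-Ala⁶]GnRH ethylamide and competitor (0.1–10,000 nM) in HEPES pH 7.4 with MgCl2, EDTA, BSA. Filtration onto PEI-soaked GF/C filters, scintillation counting; Ki from IC50 by Cheng–Prusoff.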

The next test addresses T2, mouse GnRH receptors (Mus musculus, UniProt Q01776).
T2 construct: expressed in transfected cells; host or cells: HEK 293
T2 sequence (Q01776 1-327): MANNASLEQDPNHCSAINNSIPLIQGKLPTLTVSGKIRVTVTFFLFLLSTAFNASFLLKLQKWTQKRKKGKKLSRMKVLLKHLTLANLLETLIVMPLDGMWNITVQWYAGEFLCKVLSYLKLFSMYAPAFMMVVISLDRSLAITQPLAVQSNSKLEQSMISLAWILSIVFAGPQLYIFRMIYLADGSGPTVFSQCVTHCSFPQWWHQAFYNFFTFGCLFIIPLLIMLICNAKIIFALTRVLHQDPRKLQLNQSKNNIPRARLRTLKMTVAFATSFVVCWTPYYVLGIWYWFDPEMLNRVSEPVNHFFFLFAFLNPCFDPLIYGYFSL
To be noted: Mouse GnRH receptor; competition with 125I-GnRH-A; Ki calculated from IC50 (Cheng et al.). The procedure, abridged:
as §1

For a further test, the target named is T3, human GnRH receptors (Homo sapiens, UniProt P30968).
T3 construct: expressed in transfected cells; host or cells: HEK 293
T3 sequence (P30968 1-328): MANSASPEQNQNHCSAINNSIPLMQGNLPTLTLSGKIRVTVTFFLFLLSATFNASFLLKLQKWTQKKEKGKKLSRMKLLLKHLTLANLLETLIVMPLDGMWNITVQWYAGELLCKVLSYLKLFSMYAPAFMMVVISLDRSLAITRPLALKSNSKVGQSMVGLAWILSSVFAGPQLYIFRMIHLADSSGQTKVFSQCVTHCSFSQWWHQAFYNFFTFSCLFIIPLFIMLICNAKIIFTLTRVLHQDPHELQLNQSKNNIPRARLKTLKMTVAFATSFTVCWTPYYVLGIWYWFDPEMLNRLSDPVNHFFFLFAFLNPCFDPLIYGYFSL
The note with it: Human GnRH receptor; competition with 125I-GnRH-A; Ki calculated from IC50 (Cheng et al.). The procedure, abridged: as §1

For the compound `Cc1cc2c(cc1Cc1ccc(C(=O)NNc3cc(C)c4c(C)nn(C)c4n3)o1)C(C)(C)CCC2(C)C` [Example C1, 5-[(3,5,5,8,8-Pentamethyl-5,6,7,8-tetrahydro-2-naphthalenyl)methyl]-N′-(1,3,4-trimethyl-1H-pyrazolo[3,4-b]pyridin-6yl)-2-furohydrazide], the Ki at rat GnRH receptor is 6.5 nM; at mouse GnRH receptors, 7 nM; on human GnRH receptors, 3 nM.

Turning to `COc1cc2c(cc1Cc1ccc(C(=O)NNc3cc(C)c4c(C)nn(C)c4n3)o1)C(C)(C)CCC2(C)C` [Example C2, 5-[(3-Methoxy-5,5,8,8-tetramethyl-5,6,7,8-tetrahydro-2-naphthalenyl)methyl]-N′-(1,3,4-trimethyl-1H-pyrazolo[3,4-b]pyridin-6-yl)-2-furohydrazide], the Ki is 32 nM at rat GnRH receptor, 23 nM at mouse GnRH receptors and 9.5 nM on human GnRH receptors.
